Measured values from ChEMBL document CHEMBL5543142, “Discovery of YFJ-36: Design, Synthesis, and Antibacterial Activities of Catechol-Conjugated β-Lactams against Gram-Negative Bacteria” (J Med Chem, 2024).
In brackets after ≈: the same amount, converted by molar mass.

Legend:
Assay type in all cases: functional
Klebsiella pneumoniae [1] = assay: Antibacterial activity against KPC-2 producing multidrug-resistant Klebsiella pneumoniae clinical isolate 15-1 assessed as inhibition of bacterial growth incubated for 18 to 20 hrs by two fold serial dilution assay; conditions: time 18-20 hrs
Klebsiella pneumoniae [2] = assay: Antibacterial activity against KPC-2 producing multidrug-resistant Klebsiella pneumoniae clinical isolate 15-3 assessed as inhibition of bacterial growth incubated for 18 to 20 hrs by two fold serial dilution assay; conditions: time 18-20 hrs
Pseudomonas aeruginosa [3] = assay: Antibacterial activity against IMP-4 producing multidrug-resistant Pseudomonas aeruginosa clinical isolate 17-1 assessed as inhibition of bacterial growth incubated for 18 to 20 hrs by two fold serial dilution assay; conditions: time 18-20 hrs
Escherichia coli [4] = assay: Antibacterial activity against Escherichia coli NCTC-13353 assessed as inhibition of bacterial growth incubated for 18 to 20 hrs in presence of CAMHB medium by two fold serial dilution assay; conditions: time 18-20 hrs
Acinetobacter baumannii [5] = assay: Antibacterial activity against OXA-23 producing multidrug-resistant Acinetobacter baumannii clinical isolate 17-7 assessed as inhibition of bacterial growth incubated for 18 to 20 hrs by two fold serial dilution assay; conditions: time 18-20 hrs
Pseudomonas aeruginosa [6] = assay: Antibacterial activity against IMP-4 producing multidrug-resistant Pseudomonas aeruginosa clinical isolate 15-5 assessed as inhibition of bacterial growth incubated for 18 to 20 hrs by two fold serial dilution assay; conditions: time 18-20 hrs
Acinetobacter baumannii [7] = assay: Antibacterial activity against OXA-23 producing multidrug-resistant Acinetobacter baumannii clinical isolate 17-5 assessed as inhibition of bacterial growth incubated for 18 to 20 hrs by two fold serial dilution assay; conditions: time 18-20 hrs
Klebsiella pneumoniae [8] = assay: Antibacterial activity against KPC-2 producing multidrug-resistant Klebsiella pneumoniae clinical isolate 15-5 assessed as inhibition of bacterial growth incubated for 18 to 20 hrs by two fold serial dilution assay; conditions: time 18-20 hrs
Acinetobacter baumannii [9] = assay: Antibacterial activity against OXA-23 producing multidrug-resistant Acinetobacter baumannii clinical isolate 17-6 assessed as inhibition of bacterial growth incubated for 18 to 20 hrs by two fold serial dilution assay; conditions: time 18-20 hrs
Escherichia coli [10] = assay: Antibacterial activity against ESBL-producing multidrug-resistant Escherichia coli clinical isolate 14-1 assessed as inhibition of bacterial growth incubated for 18 to 20 hrs by two fold serial dilution assay; conditions: time 18-20 hrs
Pseudomonas aeruginosa [11] = assay: Antibacterial activity against IMP-4 producing multidrug-resistant Pseudomonas aeruginosa clinical isolate 17-13 assessed as inhibition of bacterial growth incubated for 18 to 20 hrs by two fold serial dilution assay; conditions: time 18-20 hrs
Pseudomonas aeruginosa [12] = assay: Antibacterial activity against IMP-4 producing multidrug-resistant Pseudomonas aeruginosa clinical isolate 19-1 assessed as inhibition of bacterial growth incubated for 18 to 20 hrs by two fold serial dilution assay; conditions: time 18-20 hrs
Pseudomonas aeruginosa [13] = assay: Antibacterial activity against IMP-4 producing multidrug-resistant Pseudomonas aeruginosa clinical isolate 19-5 assessed as inhibition of bacterial growth incubated for 18 to 20 hrs by two fold serial dilution assay; conditions: time 18-20 hrs
Klebsiella pneumoniae [14] = assay: Antibacterial activity against KPC-2 producing multidrug-resistant Klebsiella pneumoniae clinical isolate 15-2 assessed as inhibition of bacterial growth incubated for 18 to 20 hrs by two fold serial dilution assay; conditions: time 18-20 hrs
Escherichia coli [15] = assay: Antibacterial activity against Escherichia coli ATCC35218 assessed as inhibition of bacterial growth incubated for 18 to 20 hrs by two fold serial dilution assay; conditions: time 18-20 hrs
Acinetobacter baumannii [16] = assay: Antibacterial activity against OXA-23 producing multidrug-resistant Acinetobacter baumannii clinical isolate 15-3 assessed as inhibition of bacterial growth incubated for 18 to 20 hrs by two fold serial dilution assay; conditions: time 18-20 hrs
Acinetobacter baumannii [17] = assay: Antibacterial activity against OXA-23 producing multidrug-resistant Acinetobacter baumannii clinical isolate 15-5 assessed as inhibition of bacterial growth incubated for 18 to 20 hrs by two fold serial dilution assay; conditions: time 18-20 hrs
Pseudomonas aeruginosa [18] = assay: Antibacterial activity against IMP-4 producing multidrug-resistant Pseudomonas aeruginosa clinical isolate 15-1 assessed as inhibition of bacterial growth incubated for 18 to 20 hrs by two fold serial dilution assay; conditions: time 18-20 hrs
Escherichia coli [19] = assay: Antibacterial activity against ESBL-producing multidrug-resistant Escherichia coli clinical isolate 14-2 assessed as inhibition of bacterial growth incubated for 18 to 20 hrs by two fold serial dilution assay; conditions: time 18-20 hrs
Pseudomonas aeruginosa [20] = assay: Antibacterial activity against Pseudomonas aeruginosa ATCC 27853 assessed as inhibition of bacterial growth incubated for 18 to 20 hrs by two fold serial dilution assay; conditions: time 18-20 hrs
Acinetobacter baumannii [21] = assay: Antibacterial activity against OXA-23 producing multidrug-resistant Acinetobacter baumannii clinical isolate 17-2 assessed as inhibition of bacterial growth incubated for 18 to 20 hrs by two fold serial dilution assay; conditions: time 18-20 hrs
Escherichia coli [22] = assay: Antibacterial activity against ESBL-producing multidrug-resistant Escherichia coli clinical isolate 14-4 assessed as inhibition of bacterial growth incubated for 18 to 20 hrs by two fold serial dilution assay; conditions: time 18-20 hrs
Acinetobacter baumannii [23] = assay: Antibacterial activity against OXA-23 producing multidrug-resistant Acinetobacter baumannii clinical isolate 17-8 assessed as inhibition of bacterial growth incubated for 18 to 20 hrs by two fold serial dilution assay; conditions: time 18-20 hrs
Acinetobacter baumannii [24] = assay: Antibacterial activity against multidrug-resistant Acinetobacter baumannii BM-2023-D2-010 infected in ICR mouse assessed as survival rate at 40 mg/kg,iv after 1 and 5 hour of post-infection measured after 7 days relative to control; conditions: time 7 day
Pseudomonas aeruginosa [25] = assay: Antibacterial activity against IMP-4 producing multidrug-resistant Pseudomonas aeruginosa clinical isolate 19-17 assessed as inhibition of bacterial growth incubated for 18 to 20 hrs by two fold serial dilution assay; conditions: time 18-20 hrs
Acinetobacter baumannii [26] = assay: Antibacterial activity against multidrug-resistant Acinetobacter baumannii BM-2023-D2-010 infected in ICR mouse assessed as inhibition of bacterial growth at iv after 1 and 5 hour of post-infection measured after 7 days; conditions: BM-2023-D2-010, 168 h, time 7 day
Acinetobacter baumannii [27] = assay: Antibacterial activity against OXA-23 producing multidrug-resistant Acinetobacter baumannii clinical isolate 15-4 assessed as inhibition of bacterial growth incubated for 18 to 20 hrs by two fold serial dilution assay; conditions: time 18-20 hrs
Escherichia coli [28] = assay: Antibacterial activity against Escherichia coli ATCC-35218 infected in ICR mouse assessed as inhibition of bacterial growth at iv after 1 and 5 hour of post-infection measured after 7 days; conditions: ATCC-35218, 168 h, time 7 day

C[C@@H](O)[C@H]1C(=O)N2C(C(=O)O)=C(S[C@@H]3CN[C@H](C(=O)N(C)C)C3)[C@H](C)[C@H]12 [MEROPENEM]
MIC (Klebsiella pneumoniae [1]): > 64 µg/mL
MIC (Klebsiella pneumoniae [2]): > 64 µg/mL
MIC (Pseudomonas aeruginosa [3]): 4 µg/mL (≈ 10.4 µM)
MIC (Escherichia coli [4]): 32 µg/mL
MIC (Acinetobacter baumannii [5]): > 64 µg/mL
MIC (Pseudomonas aeruginosa [6]): 16 µg/mL (≈ 41.7 µM)
MIC (Acinetobacter baumannii [7]): > 64 µg/mL
MIC (Klebsiella pneumoniae [8]): > 64 µg/mL
MIC (Acinetobacter baumannii [9]): > 64 µg/mL
MIC (Escherichia coli [10]): 0.125 µg/mL (≈ 0.326 µM)
MIC (Pseudomonas aeruginosa [11]): 16 µg/mL (≈ 41.7 µM)
MIC (Pseudomonas aeruginosa [12]): 0.5 µg/mL (≈ 1.3 µM)
MIC (Pseudomonas aeruginosa [13]): 16 µg/mL (≈ 41.7 µM)
MIC (Klebsiella pneumoniae [14]): > 64 µg/mL
MIC (Escherichia coli [15]): 0.06 µg/mL (≈ 0.156 µM)
MIC (Acinetobacter baumannii [16]): 32 µg/mL (≈ 83.4 µM)
MIC (Acinetobacter baumannii [17]): 32 µg/mL (≈ 83.4 µM)
MIC (Pseudomonas aeruginosa [18]): 32 µg/mL (≈ 83.4 µM)
MIC (Escherichia coli [19]): 2 µg/mL (≈ 5.22 µM)
MIC (Pseudomonas aeruginosa [20]): 1 µg/mL (≈ 2.61 µM)
MIC (Acinetobacter baumannii [21]): > 64 µg/mL
MIC (Escherichia coli [22]): 4 µg/mL (≈ 10.4 µM)
MIC (Acinetobacter baumannii [23]): > 64 µg/mL
Activity (Acinetobacter baumannii [24]): 0%
MIC (Pseudomonas aeruginosa [25]): 32 µg/mL (≈ 83.4 µM)
MIC (Acinetobacter baumannii [26]): > 64 µg/mL
MIC (Acinetobacter baumannii [27]): 32 µg/mL (≈ 83.4 µM)
MIC (Escherichia coli [28]): ≤ 0.03 µg/mL
